Results: patent US20260199481A1, “PROTEIN DEGRADATION TARGETING CHIMERA COMPOUND, COMPOSITION THEREOF, AND USE THEREOF” (TSINGHUA UNIVERSITY, priority 2022, published 2026)
Where two headings read alike, the source gives them in different places.

Assays:
MCF-7 cells = test: In vitro anti-tumor effect, CellTiter 96 viability assay; assay type: cell-based; conditions: Homo sapiens, MCF7, light or radiation study
Description: Experimental Procedure: MCF-7 cells in the logarithmic growth phase were used for the experiment. The cells were seeded at 5000 cells per well in 96-well plates and incubated for 24 hours at 37° C. The cells were treated with Example compounds A1-D3 for 3 h. Subsequently, the irradiated group was irradiated with 10-30 Gy of X-rays, and the cells were continued to be incubated until 72 h after completion of irradiation. At the end of drug treatment, 20 μL of CellTiter 96° solution was added to each well. The well plates were incubated in an incubator for 2-4 hours, and then the absorbance was measured using a plate reader. Data were analyzed with GraphPad Prism software to obtain the IC50 values of each test compound.

BRD4 = biological target: T1, BRD4 (Homo sapiens, UniProt O60885); test: Protein degradation activity, Western blotting of BRD4 in MCF-7 cells; assay type: cell-based; conditions: FIG. 3
T1 construct: endogenous in cells; host or cells: MCF-7
Description: Cell treatment: MCF-7 cells in the logarithmic growth phase were taken for the experiment. Cells were inoculated in six-well plates at a density of 5.0×10^5 cells/per well and incubated at 37° C. for 24 hours. […]
Whole cell protein extraction: After completion of drug treatment, the culture medium was discarded, and the cells were washed 3 times with pre-cooled PBS. Cells were scraped off using a cell scraper, and the resulting solution was carefully aspirated and centrifuged at 300 g for 5 min at 4° C. to obtain cells, which were washed with PBS, resuspended, and centrifuged under the same conditions.
Cell lysis: Cells were washed with pre-cooled PBS and lysed in pre-cooled lysis buffer (containing 1% protease and phosphatase inhibitor) for 30 min, and cells were vigorously vortexed several times during lysis. After lysis was completed, the cells were centrifuged at 11,000 g for 15 min at 4° C., and the supernatant was collected as whole cell protein.
Protein denaturation: protein concentration was measured by Bradford assay. Proteins were diluted using 4× Protein Sampling Buffer. Subsequently, the proteins were denatured by heating in a metal bath at 100° C. for 15 min.
Protein Immunoblotting Assay (Western Blotting, WB) was Performed to Quantify BRD4 Protein:
1) Protein electrophoresis: proteins were separated in 4-12% or 4-20% Bis-Tris SDS-PAGE gels. The appropriate volume of the above cell whole protein extract was added to the lanes of the above SDS-PAGE gel. Turn on the power and electrophoresis at 120 V for 15 minutes, then adjust the voltage to 180 V and continue electrophoresis until the loading buffer reaches the lowest end of the gel.
(2) Membrane transfer: After electrophoresis, remove the gel, cut a PVDF membrane […] of the appropriate size and activate the membrane with anhydrous methanol, and install the membrane transfer device in the following order from the negative pole to the positive pole: sponge cushion, gel, PVDF membrane, sponge cushion. After installing the membrane transfer device, place it in the corresponding membrane transfer tank, check the liquid level of the solution required for membrane transfer, turn on the power, and complete the membrane transfer after 3 transfer cycles.
3) Blocking: Place the membrane in QuickBlock™ Western Blocking Buffer and shake it for 20 minutes at room temperature.
4) Primary antibody incubation: After the blocking, discard the blocking solution, add the primary antibody diluted to the appropriate concentration, and gently shake the membrane overnight at 4° C. After completing the incubation, wash the membrane 4 times with 1×TBST for 5 min/time.
(5) Secondary antibody incubation: Add secondary antibody diluted to the appropriate concentration and gently shake the PVDF membrane for 1 hour at room temperature. After incubation, the membrane was washed 4 times with 1×TBST for 5 min/time.
6) Developing: Prepare the ECL developing solution before developing. Lay the PVDF membrane flat on a clean plastic wrap, add the developer solution to the membrane, and let it stand for 1 minute away from light. Subsequently, the PVDF membrane was imaged on a gel system.

MCF-7 cell line = test: In vivo anti-tumor activity, MCF-7 tumor model; parameters: species or system BALB/c nude mice; conditions: for tumor growth (tumor volume): 10 mg/kg subcutaneous injection
Description: To investigate the in vivo activation and antitumor activity of the PROTAC compound AS2 and X-ray-responsive PROTAC compound A1, we performed in vivo antitumor activity studies. The MCF-7 cell line was selected, and experiments were performed in BALB/c nude mice. Experimental animals: BALB/c nude mice (female; 6-8 weeks old) were all purchased from Beijing Vital River Laboratory Animal Technology Co., Ltd and housed in pathogen-free conditions with standard temperature and humidity at the Laboratory Animal Resources Center of Tsinghua University. All animal experiments were approved by the Animal Ethics Committee of Tsinghua University. Tumor model establishment: MCF-7 cells in logarithmic growth phase were taken, and 0.25% trypsin was added to digest the cells after washing the cells for 3 times with pre-cooled PBS buffer. The digested cells were centrifuged at 1000 rpm/min for 5 min, the precipitate was discarded, and the cells were resuspended with pre-cooled PBS and carefully blown to make a single-cell solution. After the cells were counted by a counter, the cell density was adjusted to 1×10^7 cells/mL, and 10 mL was taken into a centrifuge tube and stored on ice. Before inoculation of cancer cells, nude mice were gently wiped under the skin of the right axilla with a paper towel sprayed with 75% alcohol. A 1 mL disposable syringe was used to aspirate 200 μL of cell suspension, and the air in the needle was removed, and a single subcutaneous injection was carried out by puncturing about 1 cm forward from the needle inlet site. The needle was withdrawn slowly to avoid fluid leakage. Observe the tumor growth status daily. Drug administration: When the tumor volume reached 120 mm^3, the tumor-bearing mice were randomly grouped. Six groups were set up, namely PBS, PROTAC drug AS2, PROTAC prodrug A1, PBS+X-ray irradiation, PROTAC drug AS2+X-ray irradiation, and PROTAC prodrug A1+X-ray irradiation. Each drug was dispersed in the following solution: 1.25% DMSO+20% PEG+5% Tween 80+73.75% dd H2O; administered dose: 10 mg/kg; subcutaneous injection. X-ray irradiation was performed 3 hours after drug injection. The irradiation dose was 5 Gy. Tumor size and body weight were monitored every other day. Tumor volume was calculated using the formula: tumor volume=length×width^2/2. After 16 days of monitoring, mice in each group were euthanized, and tumors and major organs were collected.

[1] = compound 3 h, then X-rays 10 Gy or 30 Gy, 72 h after irradiation, read-out: Irradiation with 10 Gy or 30 Gy IC50
[2] = no irradiation, 72 h incubation, read-out: Radiation-free IC50

Structure (SMILES)	IC50 (MCF-7 cells; [1]) [nM]	IC50 (MCF-7 cells; [2]) [nM]	further results
Cc1sc2c(c1C)C(c1ccc(Cl)cc1)=N[C@@H](CC(=O)C(CCCCNc1cccc3c1C(=O)N(C1CCC(=O)NC1=O)C3=O)Cc1c(F)c(F)c(F)c(F)c1F)c1nnc(C)n1-2 (stereo partly drawn) [Compound A3]	273	2540	–
COc1cc(CC(CCCCNc2cccc3c2C(=O)N(C2CCC(=O)NC2=O)C3=O)C(=O)C[C@@H]2N=C(c3ccc(Cl)cc3)c3c(sc(C)c3C)-n3c(C)nnc32)cc(OC)c1 (stereo partly drawn) [Compound B3]	338	2760	–
Cc1sc2c(c1C)C(c1ccc(Cl)cc1)=N[C@@H](CC(=O)NCCCCNc1cccc3c1C(=O)N(C1CCC(=O)N(C(=O)OCc4c(F)c(F)c(N)c(F)c4F)C1=O)C3=O)c1nnc(C)n1-2 (stereo partly drawn) [Compound C3]	970	1860	–
Cc1ncsc1-c1ccc([C@H](C)NC(=O)[C@@H]2C[C@@H](OC(=O)OCc3c(F)c(F)c(N=[N+]=[N-])c(F)c3F)CN2C(=O)[C@H](NC(=O)CCOCc2cn(CCOCCNC(=O)C[C@@H]3N=C(c4ccc(Cl)cc4)c4c(sc(C)c4C)-n4c(C)nnc43)nn2)C(C)(C)C)cc1 [Compound D1]	152	1220	–
COc1cc(COC(=O)O[C@@H]2C[C@@H](C(=O)N[C@@H](C)c3ccc(-c4scnc4C)cc3)N(C(=O)[C@H](NC(=O)COCCCOCCNC(=O)C[C@@H]3N=C(c4ccc(Cl)cc4)c4c(sc(C)c4C)-n4c(C)nnc43)C(C)(C)C)C2)cc(OC)c1 [Compound B2]	119	1060	–
COc1cc(COC(=O)O[C@@H]2C[C@@H](C(=O)N[C@@H](C)c3ccc(-c4scnc4C)cc3)N(C(=O)[C@H](NC(=O)COCCOCCOCCNC(=O)C[C@@H]3N=C(c4ccc(Cl)cc4)c4c(sc(C)c4C)-n4c(C)nnc43)C(C)(C)C)C2)cc(OC)c1 [Compound A2]	103	1110	–
COc1cc(COC(=O)O[C@@H]2C[C@@H](C(=O)N[C@@H](C)c3ccc(-c4scnc4C)cc3)N(C(=O)[C@H](NC(=O)CCCCCCCCCCNC(=O)C[C@@H]3N=C(c4ccc(Cl)cc4)c4c(sc(C)c4C)-n4c(C)nnc43)C(C)(C)C)C2)cc(OC)c1 [Compound C2]	107	984	–
COc1cc(COC(=O)O[C@@H]2C[C@@H](C(=O)N[C@@H](C)c3ccc(-c4scnc4C)cc3)N(C(=O)[C@H](NC(=O)CCOCc3cn(CCOCCNC(=O)C[C@@H]4N=C(c5ccc(Cl)cc5)c5c(sc(C)c5C)-n5c(C)nnc54)nn3)C(C)(C)C)C2)cc(OC)c1 [Compound D2]	127	1010	–
Cc1ncsc1-c1ccc([C@H](C)NC(=O)[C@@H]2C[C@@H](OC(=O)OCc3c(F)c(F)c(N=[N+]=[N-])c(F)c3F)CN2C(=O)[C@H](NC(=O)COCCCOCCNC(=O)C[C@@H]2N=C(c3ccc(Cl)cc3)c3c(sc(C)c3C)-n3c(C)nnc32)C(C)(C)C)cc1 [Compound B1]	119	1080	–
Cc1ncsc1-c1ccc([C@H](C)NC(=O)[C@@H]2C[C@@H](O)CN2C(=O)[C@H](NC(=O)COCCOCCOCCNC(=O)C[C@@H]2N=C(c3ccc(Cl)cc3)c3c(sc(C)c3C)-n3c(C)nnc32)C(C)(C)C)cc1 [AS2]	–	–	DC50 (BRD4; WB): 31.2 nM; degradation activity on BRD4 (BRD4; tested concentrations 0-300 nM): effectively degraded BRD4; tumor growth (tumor volume) (MCF-7 cell line; X-ray 5 Gy 3 hours after drug injection): tumor growth was significantly inhibited; tumor growth (tumor volume) (MCF-7 cell line; no irradiation, compared with PBS group): poor antitumor effect; tumor weight at day 16 (MCF-7 cell line; 10 mg/kg subcutaneous, two administrations with radiation therapy, FIG. 9): essentially no tumor growth
Cc1ncsc1-c1ccc([C@H](C)NC(=O)[C@@H]2C[C@@H](OC(=O)OCc3c(F)c(F)c(N=[N+]=[N-])c(F)c3F)CN2C(=O)[C@H](NC(=O)CCCCCCCCCCNC(=O)C[C@@H]2N=C(c3ccc(Cl)cc3)c3c(sc(C)c3C)-n3c(C)nnc32)C(C)(C)C)cc1 [Compound C1]	146	964	–
COc1cc(COC(=O)N2C(=O)CCC(N3C(=O)c4cccc(NCCCCNC(=O)C[C@@H]5N=C(c6ccc(Cl)cc6)c6c(sc(C)c6C)-n6c(C)nnc65)c4C3=O)C2=O)cc(OC)c1 (stereo partly drawn) [Compound D3]	104	1960	–
